# Legend:
# [1] = Mannitol particle size, initially and after mixing with VP10 hydrogel solution; format: physicochemical
# Excerpt: All chemicals were purchased from Sigma-Aldrich unless otherwise stated. N-isopropylacrylamide (NIPAAm) was purified by recrystallization from hexane and vacuum-dried. 2-Hydroxyethyl methacrylate (HEMA) was purified by vacuum distillation. Vinylpyrrolidone (VP), lactide, benzoyl peroxide (BPO), sodium methoxide (NaOCH3), methacryloyl chloride, methacrylic acid (MAA) and other solvents were used as received. D-mannitol particles were sieved to obtain the portion between 170 and 230 meshes.
# SMCs = test: Cytotoxicity and proliferation of SMCs (mitochondrial activity assay); format: cell-based; settings: dissolved mannitol
structure (smiles),measurement,setting,value
"OC[C@@H](O)[C@@H](O)[C@H](O)[C@H](O)CO [mannitol, D-mannitol]",particle size change after mixing with hydrogel solution,[1]; mixed with VP10 hydrogel solution for 10 min,did not decrease significantly
same,initial size of sieved mannitol particles,"[1]; sieved, 170-230 mesh",68.0 μm
same,concentration up to which no cytotoxicity was shown,SMCs,up to 100 mM
